The values below come from patent US20150313862A1, “"Pharmaceutical composition for reducing the trimethylamine N-oxide level"” (Latvian Institute of Organic Synthesis, priority 2012, published 2015).

Marks after values point to notes of the source that are not given here.

Series [1] relates to TMANO. Nature of the series: TMANO concentration in blood plasma of healthy volunteers on a TMANO source rich diet (UPLC-MS/MS). It is filed as in vivo, human. Particulars: for TMANO concentration in study participant's blood plasma: healthy volunteers (n=8), after 7 days TMANO source rich diet (150 g fish/day) with oral Meldonium 500 mg twice a day, mean ± SEM, diet alone 81.5 ± 8.6, baseline 4.9 ± 1.3, dihydrate. As to the method: (§1) Eight healthy volunteers were involved in the study, 4 women and 4 men. The study was conducted in accordance with the Declaration of Helsinki, and with bioethical norms approved by the Central Committee of Medical Ethics. All study participants have signed informed consent forms. Exclusion criteria for participation in the study were: the use of dietary supplements, smoking, pregnancy and alcohol addiction. At the study beginning information about the participant's age, medication use, height and weight was recorded.
Then, a venous blood sample and evening and morning urine samples were collected from the study participants. At the first stage of experiment, all participants received 150 grams of fish for lunch, once a day, during 7 days, which served as a source of TMANO increased formation in the body (W. J. Dyer. Amines in Fish Muscle. VI. Trimethylamine Oxide Content of Fish and Marine Invertebrates, Journal of the Fisheries Research Board of Canada, 8c(5): 314-324, 10.1139/f50-020, 1952).
During the next stage of experiment, to determine the effect of Meldonium on TMANO concentration in blood plasma and urine, in addition to trimethylamine-rich food source, a pharmaceutical composition containing 500 mg of Meldonium was administered to each study participant during 7 days, twice a day (morning and evening). […]
(§2) TMANO concentration in plasma and urine samples was determined by ultrahigh performance liquid chromatography-tandem mass spectrometry method. […] TMANO detection and quantification was performed using Quattro Micro™ spectrometer (Micromass) in an ion reaction monitoring (TMANO ion transition m/z75.8>m/z58.3, IS ion transition m/z175.4>m/z86.0) positive electrospraying mode (cone voltage 26V, collision energy 14 eV, collision gas—argon). […]
TMANO concentration in the sample was calculated using the linear relationship TMANO peak area/IS peak area—TMANO concentration using the data processing software QuanLynx V4.1 (Waters). […]

For series [2] the following is noted: cited from earlier work.
The test system of series [3] is TMANO. Nature of the series: Total amount of TMANO excreted with urine during 7 days, healthy volunteers on a TMANO source rich diet (UPLC-MS/MS, creatinine by Jaffe method). The settings on record: for Total excreted with urine TMANO amount during 7 days: healthy volunteers (n=8), 7 days TMANO source rich diet with oral Meldonium 1 g/day, area under the curve, mean ± SEM, diet alone 18.2 ± 2.2, baseline 2.8 ± 0.6, dihydrate. It counts as in vivo, human. Here is the method: as §1
Then, a venous blood sample and evening and morning urine samples were collected from the study participants. At the first stage of experiment, all participants received 150 grams of fish for lunch, once a day, during 7 days, which served as a source of TMANO increased formation in the body (W. J. Dyer. Amines in Fish Muscle. VI. Trimethylamine Oxide Content of Fish and Marine Invertebrates, Journal of the Fisheries Research Board of Canada, 8c(5): 314-324, 10.1139/f50-020, 1952). […]
as §2
TMANO concentration in the sample was calculated using the linear relationship TMANO peak area/IS peak area—TMANO concentration using the data processing software QuanLynx V4.1 (Waters).
Creatinine concentration was calculated by slightly modified Jaffe method (Jaffe M. Ueber die Niederschlag, welchen Pikrinsaure in normalem Ham erzeugt and uber eine neue Reaction des Kreatinins. Z physiol Chem 1886; 10: 391-400). […] After 10 min of incubation at room temperature the absorbance was measured at 492 nm with a μQuant™ multiwell plate […] spectrophotometer (Biotek Instruments, USA). […]

Take `C[N+](C)(C)NCCC(=O)[O-]` [Meldonium, 3-(2,2,2-trimethyhydrazinium)propionate dihydrate]: the “Reduction of TMANO plasma concentration” value in the series on TMANO [1] (7 days oral Meldonium 500 mg twice a day with TMANO-rich food, compared with TMANO level before Meldonium use, statistically significant) is 47%. Further, the “TMANO concentration in study participant's blood plasma” value with TMANO [1] is 43.0 ± 3.8 nmol/mL; in the series on TMANO [1] (listed as TMANO + Meldonium) it was 43.0 ± 3.8*^,# nmol/ml. Moreover, the Solubility in water entry in series [2] was “easily soluble in water”. Further, the “Increase of urine excreted TMANO amount” value with TMANO [3] (7 days oral Meldonium 500 mg twice a day with TMANO-rich food, versus before Meldonium use, statistically significant) is recorded as “about 25%”. The “Total excreted with urine TMANO amount during 7 days” value was 24.3±1.5 μmol/mg creatinine *7 d in the series on TMANO [3] and 24.3 ± 1.5*^,# μmol/mg creatinine *7 d in the series on TMANO [3] (listed as TMANO + Meldonium).
